Patent publication EP4755880A1, “SUBSTITUTED NITROGEN-CONTAINING BICYCLIC COMPOUND AND USE THEREOF” (Sunshine Lake Pharma Co., Ltd., priority 2023, dated 2025)
pIC50: −log10 of the molar value.

Experiments:
PARP1 = PARP1 (Homo sapiens, UniProt P09874); test: Inhibition of PARP1 enzyme activity (ELISA, chemiluminescence); type: biochemical; conditions: for IC50: ELISA, histone-coated plate, NAD+, 60 min at 25 °C; for Selectivity PARP2/PARP1: ratio of PARP2 IC50 to PARP1 IC50
DLD-1 BRCA2(-/-) cells = test: Inhibition of proliferation of DLD-1 BRCA2(-/-) cells (CTG method); type: cell-based; conditions: Homo sapiens, DLD-1, 168 h; 7 days incubation, CellTiter-Glo
In short: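 DLD-1 BRCA2(-/-) cells, 1,000 per well, attached overnight, then exposed to compound at final 10000 to 0.152 nM (4-fold series) in triplicate for 7 days at 37 °C, 5% CO2. Viability by CellTiter-Glo luminescence; IC50 for proliferation inhibition from a fitted curve.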

MDA-MB-436 cells = test: Inhibition of proliferation of MDA-MB-436 cells (CellTiter-Glo); type: cell-based; conditions: Homo sapiens, MDA-MB-436, 168 h, 7 days incubation
In short: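 MDA-MB-436 cells seeded at 500-1000 cells/well, allowed to attach overnight, then treated with 9 concentrations from 10000 to 0.152 nM final (4-fold steps) in triplicate for 7 days at 37°C, 5% CO2. Viability by CellTiter-Glo luminescence; IC50 from fitted curve.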

PARP2 = PARP2 (Homo sapiens, UniProt Q9UGN5); test: biochemical;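 further: PARP2 enzyme ELISA on histone-coated plates, Strep-HRP detection with chemiluminescence read-out, 10 min compound preincubation with enzyme, inhibition scaled between Max and Min signal controls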
[1] = Pharmacokinetics in mice after intravenous injection or gavage; conditions: BALB/c, mouse, plasma
Procedure: (§1) The compounds of the present invention were administered to test animals in the form of 5% DMSO + 30% PEG400 + 65% physiological saline, 10% DMSO + 10% Kolliphor HS15 + 80% Saline, 10% DMSO + 89% (25% SBE-B-CD) + (2% HCl), 20% PEG400 + 80% sterile water for injection, or 10% DMA+ 10% HS15 + 30% PEG400 + 50% sterile aqueous solution for injection. Animals were fasted for 12 hours before administration but had free access to water. For the intravenous administration group, the dose was 1 mg/kg. Blood samples (approximately 0.15 mL) were collected intravenously at the following time points after administration: 0.083, 0.25, 0.5, 1.0, 2.0, 4.0, 6.0, 8.0 and 24 h (dogs) or 0.083, 0.25, 0.5, 1.0, 2.0, 5.0, 7.0 and 24 h (mice and rats) or 0.083, 0.25, 0.5, 1.0, 2.0, 6.0, 8.0 and 24 h (monkeys). EDTA-K2 was pre-added to the blood collection tube as an anticoagulant. The blood samples were centrifuged at 12,000 rpm for 2 minutes, and plasma was collected and stored at -20 °C or - 70 °C. For the gavage administration group, the dosage was 1 mg/kg (mice, dogs, and monkeys) or 5 mg/kg (rats). After administration, venous blood samples (approximately 0.15 mL) were collected at the following time points: 0.25, 0.5, 1.0, 2.0, 4.0, 6.0, 8.0, and 24 h (dogs) or 0.25, 0.5, 1.0, 2.0, 5.0, 7.0, and 24 h (mice and rats) or 0.25, 0.5, 1.0, 2.0, 6.0, 8.0, and 24 h (monkeys). EDTA-K2 was pre-added to the blood collection tube as an anticoagulant. The blood samples were centrifuged at 12,000 rpm for 2 minutes, and plasma was collected and stored at -20 °C or -70 °C.
(§2) The collected plasma samples were processed (frozen plasma was thawed at room temperature, vortexed for 15 s to mix, 10-20 µL of plasma was taken, 120-150 µL of acetonitrile solution containing internal standard was added, vortexed for 5 min to mix, centrifuged at 4,000 rpm for 5 min, 100 µL of supernatant was taken, and 120-150 Ml/water (v/v = 1/1) was added and mixed). The concentration of compounds in the plasma was then analyzed by LC-MS/MS.

[2] = Pharmacokinetics in SD rats after intravenous injection or gavage; conditions: rat, plasma
Procedure: as §1, §2
Table D Pharmacokinetic parameters of compounds of the present invention in SD rats

Sequence of PARP2 (Q9UGN5 whole entry): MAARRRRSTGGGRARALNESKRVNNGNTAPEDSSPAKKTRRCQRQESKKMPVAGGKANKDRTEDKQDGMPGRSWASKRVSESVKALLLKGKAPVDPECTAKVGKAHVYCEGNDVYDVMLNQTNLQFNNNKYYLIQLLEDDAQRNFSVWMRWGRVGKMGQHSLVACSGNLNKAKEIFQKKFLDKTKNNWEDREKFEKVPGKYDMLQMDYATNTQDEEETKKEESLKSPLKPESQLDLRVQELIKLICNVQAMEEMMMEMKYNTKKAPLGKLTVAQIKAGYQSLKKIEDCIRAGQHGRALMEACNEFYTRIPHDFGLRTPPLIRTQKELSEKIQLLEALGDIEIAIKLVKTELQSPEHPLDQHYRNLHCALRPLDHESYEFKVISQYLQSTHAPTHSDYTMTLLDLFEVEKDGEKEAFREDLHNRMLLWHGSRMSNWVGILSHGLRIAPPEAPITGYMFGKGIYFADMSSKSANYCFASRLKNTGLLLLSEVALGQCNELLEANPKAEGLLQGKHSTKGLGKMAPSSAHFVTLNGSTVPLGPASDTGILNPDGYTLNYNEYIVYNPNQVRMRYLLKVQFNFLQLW
Sequence of PARP1 (P09874 whole entry): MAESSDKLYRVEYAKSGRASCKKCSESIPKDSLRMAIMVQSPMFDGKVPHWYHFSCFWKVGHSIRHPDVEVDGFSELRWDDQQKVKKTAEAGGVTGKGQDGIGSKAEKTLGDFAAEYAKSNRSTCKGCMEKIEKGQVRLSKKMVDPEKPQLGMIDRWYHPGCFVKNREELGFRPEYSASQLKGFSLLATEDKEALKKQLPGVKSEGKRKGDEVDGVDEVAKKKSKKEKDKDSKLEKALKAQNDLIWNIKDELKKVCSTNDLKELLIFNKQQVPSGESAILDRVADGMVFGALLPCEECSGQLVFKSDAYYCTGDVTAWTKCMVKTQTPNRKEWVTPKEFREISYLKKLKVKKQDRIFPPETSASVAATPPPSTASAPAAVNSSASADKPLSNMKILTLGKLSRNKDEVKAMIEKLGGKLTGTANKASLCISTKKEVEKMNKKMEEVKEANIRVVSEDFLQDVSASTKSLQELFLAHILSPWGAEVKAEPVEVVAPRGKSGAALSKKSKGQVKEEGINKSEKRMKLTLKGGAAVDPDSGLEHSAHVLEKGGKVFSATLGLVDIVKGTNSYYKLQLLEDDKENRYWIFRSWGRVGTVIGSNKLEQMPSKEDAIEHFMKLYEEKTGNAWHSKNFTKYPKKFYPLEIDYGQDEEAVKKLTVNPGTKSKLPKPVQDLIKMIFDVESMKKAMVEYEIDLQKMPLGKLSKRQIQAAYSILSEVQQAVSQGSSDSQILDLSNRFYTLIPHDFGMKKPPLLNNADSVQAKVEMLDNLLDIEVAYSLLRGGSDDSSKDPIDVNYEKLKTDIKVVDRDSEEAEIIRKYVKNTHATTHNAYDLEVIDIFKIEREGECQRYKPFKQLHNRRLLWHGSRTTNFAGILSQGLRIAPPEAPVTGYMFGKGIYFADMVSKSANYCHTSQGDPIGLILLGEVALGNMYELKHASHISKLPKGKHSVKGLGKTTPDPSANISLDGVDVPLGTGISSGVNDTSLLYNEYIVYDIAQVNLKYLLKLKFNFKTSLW

SMILES | IC50 (PARP1) | Selectivity PARP2/PARP1 (PARP1) | pIC50 (DLD-1 BRCA2(-/-) cells) | pIC50 (MDA-MB-436 cells) | pIC50 (PARP2) | AUC(0-t) ([1]; iv, 2 mg/kg) | Cmax ([1]; iv, 2 mg/kg) | half-life ([1]; iv, 2 mg/kg) | AUC(0-t) ([1]; po, 5 mg/kg) | Cmax ([1]; po, 5 mg/kg) | half-life ([1]; po, 5 mg/kg) | AUC(0-t) ([2]; iv, 1 mg/kg) | Cmax ([2]; iv, 1 mg/kg) | half-life ([2]; iv, 1 mg/kg) | AUC(0-t) ([2]; po, 5 mg/kg) | Cmax ([2]; po, 5 mg/kg) | half-life ([2]; po, 5 mg/kg)
CNC(=O)c1ccc(N2CCN(Cc3cc(-c4ccccc4)c4nc(C)c(=O)[nH]c4c3)CC2)c(F)n1 [Example 2, 6-fluoro-N-methyl-5-(4-((2-methyl-3-oxo-8-phenyl-3,4-dihydroquinoxalin-6-yl)methyl)piperazin-1-yl)picolinamide] | 1.5 nM | 2084.7 | 7.64 | 7.69 | 5.50 | 2870 ng·h/mL | 942 ng/mL | 3.1 h | 8560 ng·h/mL | 1450 ng/mL | 3.9 h | 1090 ng·h/mL | 534 ng/mL | 2.1 h | 5610 ng·h/mL | 719 ng/mL | 3.4 h
CNC(=O)c1ccc(N2CCN(Cc3cc(OC(C)C)c4nc(C)c(=O)[nH]c4c3)CC2)c(F)n1 [Example 3, 6-fluoro-5-(4-((8-isopropoxy-2-methyl-3-oxo-3,4-dihydroquinoxalin-6-yl)methyl)piperazin-1-yl)-N-methylpicolinamide] | 2.67 nM | 53.2 | 8.34 | 8.12 | 6.85 | 2140 ng·h/mL | 1220 ng/mL | 1.9 h | 4890 ng·h/mL | 1780 ng/mL | 2.4 h | 1990 ng·h/mL | 653 ng/mL | 3.4 h | 13100 ng·h/mL | 1400 ng/mL | 3.7 h
CC#Cc1cc(CN2CCN(c3ccc(C(=O)NC)nc3F)CC2)cc2[nH]c(=O)c(C)nc12 [Example 7, 6-fluoro-N-methyl-5-(4-((2-methyl-3-oxo-8-(prop-1-yn-1-yl)-3,4-dihydroquinoxalin-6-yl)methyl)piperazin-1-yl)picolinamide] | 1.3 nM | 362.1 | 8.60 | 7.97 | 6.33 | 2140 ng·h/mL | 1300 ng/mL | 1.6 h | 6370 ng·h/mL | 3230 ng/mL | 1.8 h | 3370 ng·h/mL | 1170 ng/mL | 3.4 h | 22400 ng·h/mL | 2600 ng/mL | 3.3 h
CNC(=O)c1ccc(N2CCN(Cc3cc(OC(F)F)c4nc(C)c(=O)[nH]c4c3)CC2)c(F)n1 [Example 13, 5-(4-((8-(difluoromethoxy)-2-methyl-3-oxo-3,4-dihydroquinoxalin-6-yl)methyl)piperazin-1-yl)-6-fluoro-N-methylpicolinamide] | 0.713 nM | 256.6 | 8.89 | 8.46 | 6.74 | 17000 ng·h/mL | 6560 ng/mL | 1.9 h | 33900 ng·h/mL | 11500 ng/mL | 2.9 h | 7720 ng·h/mL | 2730 ng/mL | 3.2 h | 57900 ng·h/mL | 5810 ng/mL | 4.4 h
CNC(=O)c1ccc(C2=CCN(Cc3cc(OC(F)F)c4nc(C)c(=O)[nH]c4c3)CC2)c(F)n1 [Example 15, 1'-((8-(difluoromethoxy)-2-methyl-3-oxo-3,4-dihydroquinoxalin-6-yl)methyl)-2-fluoro-N-methyl-1',2',3',6'-tetrahydro-[3,4'-bipyridine]-6-carboxamide] | 0.6 nM | 248.4 | 8.39 | 8.89 | 6.86 | 75300 ng·h/mL | 13600 ng/mL | 3.8 h | 189000 ng·h/mL | 19000 ng/mL | 4.2 h | 6060 ng·h/mL | 1560 ng/mL | 4.1 h | 31600 ng·h/mL | 3630 ng/mL | 4.5 h
CC#Cc1cc(CN2CCN(c3ccc(C(=O)NC4CC4)nc3F)CC2)cc2[nH]c(=O)c(C)nc12 [Example 35, N-cyclopropyl-6-fluoro-5-(4-((2-methyl-3-oxo-8-(prop-1-yn-1-yl)-3,4-dihydroquinoxalin-6-yl)methyl)piperazin-1-yl)picolinamide] | 2 nM | 44.3 | 7.89 | 9.70 | 7.04 | 2750 ng·h/mL | 3750 ng/mL | 1.2 h | 4860 ng·h/mL | 2760 ng/mL | 1.5 h | 5680 ng·h/mL | 2230 ng/mL | 2.4 h | 48300 ng·h/mL | 4970 ng/mL | 2.8 h
CC#Cc1cc(CN2CC=C(c3ccc(C(=O)NC4CC4)nc3F)CC2)c(F)c2[nH]c(=O)c(C)nc12 [Example 41, N-cyclopropyl-2-fluoro-1'-((5-fluoro-2-methyl-3-oxo-8-(prop-1-yn-1-yl)-3,4-dihydroquinoxalin-6-yl)methyl)-1',2',3',6'-tetrahydro-[3,4'-bipyridine]-6-carboxamide] | 3.1 nM | 3254.4 | 7.43 | 7.93 | < 5.00 | 2230 ng·h/mL | 3150 ng/mL | 1.3 h | 4630 ng·h/mL | 2720 ng/mL | 1.9 h | 1670 ng·h/mL | 1720 ng/mL | 2.1 h | 7870 ng·h/mL | 3130 ng/mL | 2.8 h
Cc1nc2c(OC(F)F)cc(CN3CCN(c4ccc(C(=O)NC5CC5)nc4F)CC3)cc2[nH]c1=O [Example 46, N-cyclopropyl-5-(4-((8-(ditluoromethoxy)-2-methyl-3-oxo-3,4-dihydroquinoxalin-6-yl)methyl)piperazin-1-yl)-6-fluoropicolinamide] | 2.5 nM | 25.0 | 8.49 | 9.70 | 7.19 | 11300 ng·h/mL | 6460 ng/mL | 1.6 h | 25300 ng·h/mL | 8750 ng/mL | 2 h | 4500 ng·h/mL | 1410 ng/mL | 3.2 h | 21200 ng·h/mL | 2150 ng/mL | 3.4 h
CNC(=O)c1ccc(N2CCN(Cc3cc(OC(F)F)c4nc(C)c(=O)[nH]c4c3)CC2)c(C)n1 [Example 52, 5-(4-((8-(difluoromethoxy)-2-methyl-3-oxo-3,4-dihydroquinoxalin-6-yl)methyl)piperazin-1-yl)-N,6-dimethylpicolinamide] |  |  | 8.66 | 8.85 |  | 17800 ng·h/mL | 7220 ng/mL | 2.5 h | 67100 ng·h/mL | 10700 ng/mL | 2.8 h | 3520 ng·h/mL | 1190 ng/mL | 3.5 h | 31100 ng·h/mL | 2580 ng/mL | 3.8 h
